Results as given in publication PMC7277860, “Viridistratins A−C, Antimicrobial and Cytotoxic Benzo[j]fluoranthenes from Stromata of Annulohypoxylon viridistratum (Hypoxylaceae, Ascomycota)” (Biomolecules, 2020).
In brackets after ≈: the same amount, converted by molar mass.

Columns and labels:
[1] = Cytotoxicity assay (MTT); type: cell-based, human
Description: (§1) Compounds 1−5 were dissolved as described in the previous section. The cytotoxicity assay was initially performed against the cell lines L929 (mouse fibroblasts), as well as KB 3.1 (human papillomavirus-related endocervical adenocarcinoma), as described previously. A detailed protocol, as well as sources of the cell lines, is given in the Supporting Information.
(§2) After incubating the cell lines with a serial dilution of the test compounds (final range: 37 to 0.6 × 10^−3 µg/mL) for five days, the cells were dyed using 3-(4,5-dimethyl-2-thiazolyl)-2,5-diphenyl-2H-tetrazolium bromide (MTT), which is only converted to its purple formazan derivative by living cells. Then, the intensity of the purple derivative in relation to cells without additive (set to 100% viability) for each concentration of a test compound was quantified. For this, the absorption at 595 nm was measured using a microplate reader to calculate the percentage of cell viability. From this, the half-maximum inhibitory concentration (IC50, in µM) was calculated.
If an inhibition of cell viability with an IC50 < 50 µM was observed, further cell lines were subjected to the test compounds: PC-3 (human prostate adenocarcinoma), SK-OV-3 (human ovary adenocarcinoma), MCF-7 (human breast adenocarcinoma), A431 (human squamous carcinoma) and A549 (human lung carcinoma).
(§3) Protocol: Cytotoxicity Assay
(§4) The ass ay w as co nducted i n 9 6-well flat-bottom mi crotiter plates using the parameters summarised i n Tabl e S 2 and as described in [S2].
(§5) Cell lines L929 and KB 3.1 were incubated at 37 °C under 10 % CO2 in Gibco™ DMEM medium (Thermo Fisher Scientific, Waltham, MA, USA) supplemented with 10 % FBS. A microtiter plate was filled with 120 µL of this suspension (50,000/mL) in each well.
(§6) Seperately, another microtiter plate was filled with 100 µL of growth medium in each well. Then, 50 µL of the test compound sol utions (1 mg/mL) were given to wells of the first column in two replicates (one compound per row). C ell s wi thout addi ti ves, Me O H, and MeOH: DMSO 9+1 were used as negative controls. Starting from the first column, 50 µL of the solutions were gradually transferred to the ne xt col umn, the conte nts thoroughl y mi xed, and 50 µ L transferred to the following column. This created a serial dilution of the test compounds r anging from 333 µg/mL to 1.9 ×10−3 µg/mL. The remai ni ng 50 µL after column twelve were discarded. From this microtiter plate, 60 µL of the sol utions from 111 µg/ mL to 1.9×10−3 µg/mL were given to the first plate containing 120 µL of the cel l suspens i ons (i.e. the hi ghest concentrati on 333 µg/mL was not used). T his resulted i n fi nal compound concent rati ons rangi ng from […]
(§7) After 5 days of incubation under the aforeme ntioned i ncubati on condi ti ons, the half maximum inhibitory concentrati ons (IC 50) were determined using a colorimetric tetrazolium dye MTT assay [S3].
(§8) For this, 20 µL of a 5 mg/mL solution of 3-( 4 ,5 -dimethyl-2-thi azo l yl)-2 ,5 -di phenyl -2H-tetrazolium bromide (MTT) w ere added to each well and incubated for two hours at 37 °C. Then, the microtiter plate was centrifuged (3,000 r p m, 5 mi n) and the supernat ant remo ved by ho l di ng the pl ate upsi de-do wn and gentle shaking. Afterwards, the wells were washed using 100 µL of phosph ate buffered saline (PBS).
(§9) The plate was again centrifuged and the supernatant removed as described before. Then, 100 µL of an isopropanol:HCl solution (1L i sopropanol+4 mL HCl 37 % w/v) were added to the wells. After i ncubati ng fo r 10 mi n at ambi ent te mperature, the a bso r pti o n of the well s at 595 nm was measured wi th an I nfi ni te ® 200 Pro microplate reader (TECAN, Männedorf, Schweiz).
(§10) The absorption values of the cells without additives were averaged and set to 100 % cell viability.
(§11) Then, t he me ans of absorption of the two compound replicates were set in relation to the blank media.
These percentage values were plotted a gainst the concentration range (37 µg/mL to 0.6×10 −3 µg/mL). […]

[2] = Cytotoxicity assay (MTT); type: cell-based
Description: as §1, §2, §3, §4, §5, §6, §7, §8, §9, §10, §11
These percentage values were plotted a gainst the concentration range (37 µg/mL to 0.6×10 −3 µg/mL).
The IC50 val ue w as read from the plot ( i n µg/mL) and the uni ts conversed to µM.
If effects were observed wi th cell lines L929 and KB 3.1 (IC50 < 50 µM), the other cell lines were tested using the same protocol.
Table S2: Cytotoxicity assay experiment parameters cell line type No. growth medium […]

[3] = system: Pseudomonas aeruginosa; assay: MIC serial dilution assay; type: cell-based; details: Pseudomonas aeruginosa PA14; overnight, 37 °C; reference gentamicin 0.1 mg/mL; read-out: Minimum Inhibitory Concentration (MIC)
Description: Compounds 1, 2, 4 and 5 were dissolved in MeOH (1 mg/mL) for the antimicrobial activity assay, while compound 3 was dissolved in MeOH: DMSO 9+1 (1 mg/mL). The solvents were also used as negative controls.
Minimum inhibitory concentrations (MIC) were determined in a serial dilution assay, as described previously; a detailed protocol can be found in the Supporting Information. The compounds (1 mg/mL) were diluted to a range of 66.7 to 0.52 µg/mL and incubated with the test organisms overnight. Inhibition of growth was visually evaluated the next day: the MIC is defined as the lowest concentration of the test compound where no growth of the test organism was observed. Various test organisms of fungal and bacterial origin were tested to cover a broad range of microorganisms. This selection is also being used as a standard test panel in our attempts to discover new anti-infectives, as it represents a broad spectrum of pathogens of clinical interest, as well as sensitive indicator strains (bacteria: Bacillus subtilis, Staphylococcus aureus, Micrococcus luteus, Chromobacterium violaceum, Escherichia coli and Pseudomonas aeruginosa; mycobacteria: Mycolicibacterium smegmatis and fungi: Candida albicans, Schizosaccharomyces pombe, Mucor hiemalis, Pichia anomala and Rhodotorula glutinis).
Protocol: Antimicrobial Activi ty Assay
The assay was conducted as a minimum inhi bitory concentration (MIC) assay in 96-well ro und-bottom mi crotiter pl ate s usi ng the p ar ameter s su mm ari zed i n T a bl e S 1 and as already described i n [S1].
Stocks of the test organi sms were generated by growing the organisms o ver ni ght i n 50 mL shaki ng fl asks fi ll ed wi th 25 mL of the growth medi um at 140 rpm (for media and temperatures see Table S1). If the organisms were well grown the ne xt day, which was checked by occurrence of an optical density (OD)>30 of the suspension (OD600 nm for bacteria, OD548 nm for fungi and M. smegma tis) , aliquots of these were stored i n 1.5 mL reaction tube s in a freezer at −80 °C for up to 12 mo nths . Upon use, aliquots were unth awed and the OD of the suspension measured and adjusted by diluting with the respective growth medi um. OD600 nm w as adj usted to 0.01 and OD548 nm to 0.1.
Subse que ntly, 150 µL o f the adjusted suspensions were added to all wells of a 96-wel l microtiter pl ate (one test organi sm per plate). In row A, additional 130 µL of suspensions plus 20 µL of the test compounds (1 mg/mL) and the controls (one compound/column) were added. MeOH as well as MeOH:DMSO 9+1 were used as negative controls, while different positive controls (refer ences) were used for the test organisms (see Tabl e S1). Then, starti ng from row A, 150 µ L of the suspension were transferred to the next row, the contents thoroughly mixed, and 150 µ L transferred to the following row.
The remaining 150 µ L after row H were discarded. […]
compounds, ranging from 66.7 µg/mL i n row A to 0.52 µg/mL i n row H.
The microtiter plates were then incubated overnight o n a microplate shaker at 800 rpm at 30 or 37 °C (see Table S1) and were visually evaluated the next day. The MIC is defined as the lowest concentration were no growth of the test organism was o bserved. A lower MIC thus corresponds to a higher antimicrobial activity of the test compound.
Table S1: MIC assay ex per i men t parameters test organism strain No. growth incubation positive control (reference) […]
Pseudomonas a erugi nosa PA14 MHB 1 37 gent amici n 0.1 mg/mL […]
Rhodotorula glutinis DSM10134 MYC 3 30 nyst ati n 1.0 mg/mL
1 MHB: Müller-Hinton Broth (SN X927.1, Ca r l Roth GmbH, Karlsruhe, Germany) 2 7H9+ADC: Middlebrook 7H9 Broth Base + Middlebrook ADC Growth Supplement (SN M0678+M0553, Merck, Darmstadt, Germany)
3 MYC: 1 % w/v, bacto peptone, 1% w/v yeast extract, 2 % w /v glycerol, pH 6.3 [S1] Helaly, S.E.; Ashrafi, S.; Teponno, R.B.; Bernecker, S.; Dababat, A.A.; Maier, W.; Stadler, M.
Nematicidal Cyclic Lipodepsipeptides and a Xanthocillin Derivative from a Phaeosphariaceous […]

Row | MIC [3] [µg/mL] | SMILES | IC50 at 5 days ([1]; A431 human squamous AC) [nM] | IC50 at 5 days ([1]; A549 human lung carcinoma) [nM] | IC50 at 5 days ([1]; MCF-7 human breast AC) [nM] | IC50 at 5 days ([1]; PC-3 human prostate AC) [nM] | IC50 at 5 days ([1]; SK-OV-3 human ovary AC) [nM] | IC50 at 5 days ([2]; KB 3.1 human endocervical adenocarcinoma) [nM] | IC50 at 5 days ([2]; L929 mouse fibroblasts) [nM]
1 | – | C/C(=C\c1csc(C)n1)[C@@H]1C[C@@H]2O[C@]2(C)CCC[C@H](C)[C@H](O)[C@@H](C)C(=O)C(C)(C)[C@@H](O)CC(=O)O1 [epothilone B, reference compound] | 0.05 | 0.08 | 0.12 | 0.08 | 0.34 | 0.79 | 0.06
2 | 0.4 (≈ 0.838 µM) | CNC(C)C1CCC(N)C(OC2C(N)CC(N)C(OC3OCC(C)(O)C(NC)C3O)C2O)O1 (centres unmarked) [gentamicin, reference compound] | – | – | – | – | – | – | –
